Measured values as given in patent US9682085B2, “Anti-proprotein convertase subtilisin kexin type 9 (anti-PCSK9) compounds and methods of using the same in the treatment and/or prevention of cardiovascular diseases” (Shifa Biomedical Corporation, priority 2013, dated 2017).

Legend:
mice fed high fat diet = experiment: Test for efficacy in animal model (mice fed high fat diet); format: in vivo, mice (C57BL/6)
Protocol: SBC-115,076, and SBC-110,034 were tested for their efficacy in male mice (C57BL/6 mice). Mice were housed as four animals per cage under climate-controlled conditions of temperature (20-24° C.), humidity (60-70%), and alternating 12 h light/dark cycles. One group was fed commercial chow diet (Prolab RMH 3000, PMI feeds, St. Louis, Mo.) to serve as a negative control, while the other four groups were fed high fat diet (TD.06414), which provides 60% of calories from fat. Water was provided ad libitum. Plasma was collected once weekly to monitor the level of LDL. After 4 weeks of feeding a high fat-diet, mice were randomly assigned to one of several groups such that the average LDL levels were equal among different groups. […] Blood samples (75 μl) were collected twice weekly after drug administration from the retro-orbital venous plexus via heparinized capillary tubes containing 2 USP units of ammonium heparin per tube (Carolina, Burlington, N.C.). Plasma were separated immediately by centrifugation (5,000×g) for 5 min at room temperature and then kept at −80° C. until assayed for lipid profile. Plasma cholesterol, LDL-C, HDL-C, and triglyceride levels are measured enzymatically. Additionally, the plasma levels of PCSK9 and chemokines/cytokines were measured for potential pleiotropic effects of PCSK9 inhibitors using ELISA and multiplex assays.

HepG2 cells = experiment: Uptake of Fluorescent Dil-LDL in HepG2 cells in situ; format: cell-based; conditions: various concentrations (FIG. 6)
Protocol: The SBC compounds were validated for their ability to increase uptake of Fluorescent Dil-LDL in HepG2 cells.
We also tested the ability of the PCSK9 compounds to enhance the uptake of Fluorescent Dil-LDL in HepG2 cells. Briefly, HepG2 cells were plated and allowed to grow overnight. Compounds were added to the cells followed by the addition of Fluorescent Dil-LDL. Cells were washed extensively, and the Fluorescent Di-LDL taken up by the cells were measured using the Synergy 2 plate reader (FIG. 6).

PCSK9 = target: T1, PCSK9 (Homo sapiens, UniProt Q8NBP7); conditions: single injection, clinical trial; cited from earlier work
T1 construct: host or cells: patients (endogenous circulating PCSK9)
T1 sequence (Q8NBP7 153-692): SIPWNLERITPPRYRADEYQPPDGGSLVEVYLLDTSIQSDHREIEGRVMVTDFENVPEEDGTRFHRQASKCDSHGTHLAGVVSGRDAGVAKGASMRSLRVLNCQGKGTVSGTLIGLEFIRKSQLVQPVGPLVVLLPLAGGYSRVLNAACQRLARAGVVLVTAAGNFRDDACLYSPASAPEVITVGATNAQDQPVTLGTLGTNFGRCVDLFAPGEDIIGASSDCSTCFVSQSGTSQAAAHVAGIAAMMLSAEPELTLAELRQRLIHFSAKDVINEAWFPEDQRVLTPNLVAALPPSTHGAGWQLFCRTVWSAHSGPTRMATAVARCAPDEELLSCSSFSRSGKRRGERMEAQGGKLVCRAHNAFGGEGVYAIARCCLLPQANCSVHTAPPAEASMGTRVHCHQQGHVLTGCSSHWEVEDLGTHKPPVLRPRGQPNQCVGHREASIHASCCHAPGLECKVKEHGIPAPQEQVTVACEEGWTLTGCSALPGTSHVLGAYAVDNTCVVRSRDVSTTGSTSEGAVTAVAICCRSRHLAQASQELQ

[1] = second study, 40 mg/kg, after three weeks, P<0.01
[2] = 8 mg/kg daily s.c., after two weeks, P<0.01 (FIG. 8)

CC(C)c1c(C(=O)Nc2ccccc2)c(-c2ccccc2)c(-c2ccc(F)cc2)n1CC[C@@H](O)C[C@@H](O)CC(=O)O [Atorvastatin, reference compound]
mean reduction in total cholesterol levels relative to high fat diet animal levels (mice fed high fat diet; [1]): 27%
mean reduction toward return to regular diet cholesterol levels (mice fed high fat diet; [1]): 44%

Cc1cc(C(=O)C2=C(O)C(=O)N(CCCN3CCOCC3)C2c2ccncc2)ccc1OCc1ccccc1 (stereo not shown) [SBC-115,076]
uptake of Fluorescent Dil-LDL (HepG2 cells): increase in the Fluorescent Dil-LDL uptake using submicromolar concentrations
mean reduction in total cholesterol levels relative to high fat diet animal levels (mice fed high fat diet; [2]): 32%
mean reduction toward return to regular diet cholesterol levels (mice fed high fat diet; [2]): 50%
cholesterol levels in mice fed high fat diet (mice fed high fat diet; 8 mg/kg daily subcutaneously for two weeks): lowered cholesterol levels

REGN727: Regeneron/Sanofi fully-human PCSK9 monoclonal antibody
reduction of LDL levels (PCSK9): more than 60%
